Where two headings read alike, the source gives them in different places.
Tests used:
HCV NS3/4A wild type = molecular target: T1, HCV NS3/4A wild type (Hepatitis C virus genotype 1b, UniProt Q9WMX2); assay: Mass spectrometric analysis of covalent modification (MALDI-TOF); type: binding; settings: 10× excess of test compound to protein; MALDI-TOF
T1 construct: HCV NS3/4A wild type (wt) was incubated for 1 hr at a 10× fold access of test compound to protein; purchased Bioenza, Calif
Experimental: Mass spectrometric analysis of HCV wild type or HCV variant C159S in the presence of test compound is performed. 100 pmols of HCV wild type (Bioenza, Calif.) is incubated with test compound for 1 hr and 3 hrs at 10-fold access of test compound to protein. 1 ul aliquots of the samples (total volume of 4.24 ul) are diluted with 10 ul of 0.1% TFA prior to micro C4 ZipTipping directly onto the MALDI target using Sinapinic acid as the desorption matrix (10 mg/mL in 0.1% TFA:Acetonitrile 50:50). Analyses are performed on a Shimadzu Biotech Axima TOF2 (Shimadzu Instruments) matrix-assisted-laser desorption/ionization Time-of-Flight (MALDI-TOF) mass spectrometer. The same procedure is carried out on 100 pmols of HCV C159S mutant of HCV protease for 3 hrs at 10-fold excess of test compound to protein.
As depicted in FIGS. 1 and 2, mass spectrometric analysis of HCV wild type in the presence of test compounds I-1 and I-25 was performed using the following protocol: HCV NS3/4A wild type (wt) was incubated for 1 hr at a 10× fold access of test compound to protein. 2 ul aliquots of the samples were diluted with 10 ul of 0.1% TFA prior to micro C4 ZipTipping directly onto the MALDI target using Sinapinic acid as the desorption matrix (10 mg/ml in 0.1% TFA:Acetonitrile 50:50). For intact protein mass measurement the instrument was set in linear mode using a pulsed extraction setting of 24,500 and apomyoglobin as the standard to calibrate the instrument.

[1] = molecular target: T2, HCV NS3/4A 1b protease A156T (Hepatitis C virus genotype 1b, UniProt Q9WMX2, A1182T); assay: HCV protease FRET assay (IC50_APP), Example 16; type: biochemical
T2 construct: 10× stocks of NS3/4A protease enzyme from Bioenza (Mountain View, Calif.); purchased Bioenza (Mountain View, Calif.)
Experimental: (§1) The following protocol was used to generate “apparent” IC50 (IC50 APP) values as depicted in Table 6, below. […] 5 μL of each enzyme were added to Corning (#3575) 384-well, black, microtiter plates (Corning, N.Y.) after spotting a 0.5 μL volume of 50% DMSO and serially diluted compounds prepared in 50% DMSO. Protease reactions were immediately started after enzyme addition with the addition of 45 μL of the FRET substrate and monitored for 60-90 minutes at λex485/λem520 in a Synergy^4 plate reader from BioTek (Winooski, Vt.). At the conclusion of each assay, progress curves from each well were examined for linear reaction kinetics and fit statistics (R^2, 95% confidence intervals, absolute sum of squares).
(§2) The compound numbers correspond to the compound numbers in Table 3. […] ;

[2] = molecular target: T3, HCV NS3/4A 1b protease wild type (Hepatitis C virus genotype 1b, UniProt Q9WMX2); assay: HCV protease FRET assay (IC50_APP), Example 16; type: biochemical
T3 construct: 10× stocks of NS3/4A protease enzyme from Bioenza (Mountain View, Calif.); purchased Bioenza (Mountain View, Calif.)
Experimental: as §1, §2

[3] = molecular target: T4, HCV NS3/4A 1b protease D168A (Hepatitis C virus genotype 1b, UniProt Q9WMX2, D1194A); assay: HCV protease FRET assay (IC50_APP), Example 16; type: biochemical
T4 construct: 10× stocks of NS3/4A protease enzyme from Bioenza (Mountain View, Calif.); purchased Bioenza (Mountain View, Calif.)
Experimental: as §1, §2

[4] = tested on: HCV RNA replicon in cell line ET (luc-ubi-neo/ET), human Huh7 hepatoma; assay: Replicon luciferase assay, Example 26; type: cell-based; settings: Hepatitis C virus, Huh-7, assay of Example 26, 72 hr; for EC50: read-out: Inhibition, Replicon, EC50 value
Experimental: The compounds were assayed to evaluate the antiviral activity and cytotoxicity of compounds using replicon-derived luciferase activity. This assay used the cell line ET (luc-ubi-neo/ET), which is a human Huh7 hepatoma cell line that contains an HCV RNA replicon with a stable luciferase (Luc) reporter and cell culture-adaptive mutations. The ET cell line was grown in a 5% CO2 incubator at 37° C. in Dulbecco's modified essential media (DMEM) supplemented with 2 mM L-glutamine, nonessential amino acids, 100 U of penicillin/ml, 100 μg of streptomycin/mL, and 10% fetal bovine serum. G418 (Geneticin; Invitrogen) was added at a final concentration of 400 ug//mL.
All cell culture reagents were obtained from Invitrogen (Carlsbad). Cells were trypsinized (1% trypsin:EDTA) and plated out at 5×10^3 cells/well in white 96-well assay plates (Costar) dedicated to cell number (cytotoxicity) or antiviral activity assessments. Test compounds were added at six 3-fold concentrations each and the assay was run in DMEM, 5% FBS, 1% pen-strep, 1% glutamine, 1% non essential amino acid. Human interferon alpha-2b (PBL Biolabs, New Brunswick, N.J.) was included in each run as a positive control compound. Cells were processed 72 hr post test compound addition when the cells were still subconfluent. Antiviral activity was measured by analyzing replicon-derived luciferase activity using the Steady-Glo Luciferase Assay System (Promega, Madison, Wis.) according to manufacturer's instruction. The number of cells in each well was determined by Cell Titer Blue Assay (Promega). Compound profile was derived by calculating applicable EC50 (effective concentration inhibiting virus replication by 50%), EC90 (effective concentration inhibiting virus replication by 90%), IC50 (concentration decreasing cell viability by 50%) and SI50 (selective index: […]) values.

[5] = molecular target: T5, HCV NS3/4A 1b protease R155K (Hepatitis C virus genotype 1b, UniProt Q9WMX2, R1181K); assay: HCV protease FRET assay (IC50_APP), Example 16; type: biochemical; settings: reaction started immediately after enzyme addition, read-out: Inhibition (apparent IC50, IC50_APP), HCV R155K
T5 construct: 10× stocks of NS3/4A protease enzyme from Bioenza (Mountain View, Calif.); purchased Bioenza (Mountain View, Calif.)
Experimental: as §1, §2

SMILES | Covalent modification of HCV NS3/4A wild type (HCV NS3/4A wild type) | IC50 [1] [nM] | IC50 [2] [nM] | IC50 [3] [nM] | EC50 [4] [nM] | EC90 ([4]; read-out: Inhibition, Replicon, EC90 value) [nM] | IC50 ([2]; read-out: Inhibition (apparent IC50, IC50_APP), WT, FRET, reaction started immediately after enzyme addition) [nM] | IC50 ([3]; read-out: Inhibition (apparent IC50, IC50_APP), HCV D168A, FRET, reaction started immediately after enzyme addition) [nM] | IC50 [5] [nM]
C=CC(=O)N[C@H](C)C(=O)N1C[C@H](OC(=O)N2Cc3cccc(F)c3C2)C[C@H]1C(=O)N[C@]1(C(=O)NS(=O)(=O)C2CC2)C[C@H]1C=C [Compound I-8, (3R,5S)-1-((R)-2-acrylamidopropanoyl)-5-((1R,2S)-1-(cyclopropylsulfonylcarbamoyl)-2-vinylcyclopropylcarbamoyl)pyrrolidin-3-yl-4-fluoroisoindoline-2-carboxylate] | measurable covalent modification | < 10 | < 10 | < 10 | – | – | – | – | –
C=CC(=O)N[C@@H](C(=O)N1C[C@H](OC(=O)N2Cc3cccc(F)c3C2)C[C@H]1C(=O)N[C@]1(C(=O)NS(=O)(=O)C2CC2)C[C@H]1C=C)C(C)C [Compound I-9, (3R,5S)-1-((R)-2-acrylamido-3-methylbutanoyl)-5-((1R,2S)-1-(cyclopropylsulfonylcarbamoyl)-2-vinylcyclopropylcarbamoyl)pyrrolidin-3-yl-4-fluoroisoindoline-2-carboxylate] | measurable covalent modification | < 10 | < 10 | 10 to 100 | – | – | – | – | –
C=C[C@@H]1C[C@]1(NC(=O)[C@@H]1C[C@@H](OC(=O)N2Cc3cccc(F)c3C2)CN1C(=O)CNC(=O)c1ccccc1OC(C)=O)C(=O)NS(=O)(=O)C1CC1 [Compound I-10, (3R,5S)-1-(2-(2-acetoxybenzamido)acetyl)-5-((1R,2S)-1-(cyclopropylsulfonylcarbamoyl)-2-vinylcyclopropylcarbamoyl)pyrrolidin-3-yl-4-fluoroisoindoline-2-carboxylate] | measurable covalent modification | 1000 to 10000 | 100 to 1000 | 1000 to 10000 | – | – | – | – | –
C=C[C@@H]1C[C@]1(NC(=O)[C@@H]1CC(OC(=O)N2Cc3cccc(F)c3C2)CN1C(=O)[C@H](CCC(=O)/C=C/C)NC(=O)OC(C)(C)C)C(=O)NS(=O)(=O)C1CC1 (stereo partly shown) [Compound I-26] | measurable covalent modification | < 10 | < 10 | < 10 | – | – | – | – | –
CC(C)(C)OC(=O)N[C@H]1CCCN(S(=O)(=O)c2ccccc2[N+](=O)[O-])C/C=C\[C@@H]2C[C@@]2(C(=O)NS(=O)(=O)C2CC2)NC(=O)[C@@H]2CC(OC(=O)N3Cc4cccc(F)c4C3)CN2C1=O (stereo partly shown) [Compound I-54] | – | – | – | – | 100 to 1000 | > 10000 | < 10 | 10 to 100 | 10 to 100
C=C[C@@H]1C[C@]1(NC(=O)[C@@H]1C[C@@H]2CN1C(=O)[C@H](CCC(=O)C=C(C)C)NC(=O)OCC(C)(C)CC/C=C/c1cccc3c1CN(C3)C(=O)O2)C(=O)NS(=O)(=O)C1CC1 [Compound I-55] | – | < 10 | < 10 | 10 to 100 | < 10 | – | – | – | 10 to 100
CC[C@@H]1C[C@]1(NC(=O)[C@@H]1C[C@@H]2CN1C(=O)[C@H](CCC(=O)C=C(C)C)NC(=O)OCC(C)(C)CC/C=C/c1cccc3c1CN(C3)C(=O)O2)C(=O)NS(=O)(=O)C1CC1 [Compound I-56] | – | – | < 10 | 100 to 1000 | < 10 | – | – | – | 100 to 1000
C=C[C@@H]1C[C@]1(NC(=O)[C@@H]1CC(OC(=O)N2Cc3cccc(F)c3C2)CN1C(=O)[C@H](CC(=O)C(=C)C)NC(=O)OC(C)(C)C)C(=O)NS(=O)(=O)C1CC1 (stereo partly shown) [Compound I-68] | – | – | < 10 | < 10 | 100 to 1000 | – | – | – | < 10
C=C(C)C(=O)C[C@H](NC(=O)OC(C)(C)C)C(=O)N1CC(OC(=O)N2Cc3cccc(F)c3C2)C[C@H]1C(=O)N[C@]1(C(=O)NS(=O)(=O)C2CC2)C[C@H]1CC (stereo partly shown) [Compound I-69] | – | – | < 10 | 10 to 100 | 100 to 1000 | – | – | – | < 10
C=C[C@@H]1C[C@]1(NC(=O)[C@@H]1CC(OC(=O)N2Cc3cccc(F)c3C2)CN1C(=O)[C@H](CCC(=O)/C=C\C(C)(C)C)NC(=O)OC(C)(C)C)C(=O)NS(=O)(=O)C1CC1 (stereo partly shown) [Compound I-71] | – | – | < 10 | 100 to 1000 | < 10 | – | – | – | 100 to 1000
C=C[C@@H]1C[C@]1(NC(=O)[C@@H]1C[C@@H]2CN1C(=O)[C@H](CC(=O)C=C(C)C)NC(=O)OCC(C)(C)CC/C=C/c1cccc3c1CN(C3)C(=O)O2)C(=O)NS(=O)(=O)C1CC1 [Compound I-79] | – | – | < 10 | 10 to 100 | < 10 | – | – | – | < 10
